{"source": "patent US10028966B2", "about": "(Avalyn Pharma Inc., priority 2014, dated 2018)", "key": {"[1]": {"system": "bleomycin model of pulmonary fibrosis", "experiment": "Bleomycin model of pulmonary fibrosis (hydroxyproline, fibrosis score)", "format": "in vivo, Wistar rats", "details": "for Right lung Average Hydroxyproline: days 7-28; for Average Fibrosis Score, difference from bleomycin control / Right lung Average Hydroxyproline, difference from bleomycin control: sham-subtracted", "protocol": "To compare anti-fibrotic efficacy between extended-duration intratracheal, direct-lung aerosol administration and oral gavage, the bleomycin model of pulmonary fibrosis was performed. Doses for this study were selected based upon pharmacokinetic parameters obtained in Table 22 (from Example 8). Briefly, Wistar rats (175-225 grams) were administered bleomycin by the intratracheal route using a Penn Century MicroSprayer® catheter. On the seventh day following bleomycin exposure, animals initiated treatment with either saline or pirfenidone. Animals were dosed once a day on days 7 through 28, and euthanized on day 29. Pirfenidone was administered either intratracheally using Penn Century MicroSprayer catheter or by oral gavage. Sham and bleomycin control groups received either no treatment or intratracheal saline by Penn Century MicroSprayer catheter. While dosing more frequently (or less frequently) may improve the observed effects, anesthesia required for intratracheal administration reduced animal weight gain (reduced food intake) and, thus limited dosing to once a day for this study. Because anesthesia reduced weight gain, all study animals (intratracheal, oral and control) received once-a-day isoflurane using the same technique and duration. Twelve animals were enrolled into each dosing group. […] Oral gavage was administered in a single 300 mcL volume. Due to technical restrictions, instead of the mg/kg dose being equally split between six 50 mcL administrations over 2 minutes, intratracheal administration was performed with three equal 50 mcL volumes administered every 40 seconds over the same period. For dose selection, data from Table 22 was extrapolated. On day 29, animals were euthanized. Right lungs were extracted and measured for hydroxyproline content, while left lungs were subjected to histology. Histological sections were stained with picrosirius red and scored for lung tissue fibrosis. Twenty random photographs of each stained lung tissue section were taken, blinded and scored by an independent review panel. Observations were pooled for analysis."}, "CYP1A2": {"biological_target": "T1, CYP1A2 (Homo sapiens, UniProt P05177)", "T1 construct": "In vitro metabolism studies with hepatic microsomes; from tissue; host or cells: hepatic microsomes", "T1 sequence (P05177 whole entry)": "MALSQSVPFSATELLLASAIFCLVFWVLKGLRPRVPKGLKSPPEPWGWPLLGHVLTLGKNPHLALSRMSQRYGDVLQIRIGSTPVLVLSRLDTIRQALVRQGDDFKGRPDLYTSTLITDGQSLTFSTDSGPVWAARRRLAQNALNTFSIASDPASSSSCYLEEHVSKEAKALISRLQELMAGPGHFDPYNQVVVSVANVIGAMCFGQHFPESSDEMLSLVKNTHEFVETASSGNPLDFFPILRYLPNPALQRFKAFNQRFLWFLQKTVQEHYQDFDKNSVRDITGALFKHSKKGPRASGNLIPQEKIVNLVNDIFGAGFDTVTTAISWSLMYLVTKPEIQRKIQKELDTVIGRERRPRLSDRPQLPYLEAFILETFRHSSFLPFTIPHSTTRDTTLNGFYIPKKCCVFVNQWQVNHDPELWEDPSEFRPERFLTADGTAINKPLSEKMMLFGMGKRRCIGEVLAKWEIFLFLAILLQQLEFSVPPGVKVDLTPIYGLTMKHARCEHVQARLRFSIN", "details": "hepatic microsomes; cited from earlier work"}, "[2]": {"experiment": "Modeled human inhaled aerosol pirfenidone pharmacokinetics (FIG. 2, FIG. 5, Table 28)", "excerpt": "More specifically, the oral route requires a large oral dose to achieve a relatively small lung tissue Cmax. Delivering a similar Cmax without the large systemic dose provides increased efficacy. However, further escalating this direct lung dose, which results in increased systemic exposure, reduces this effect. […] Specifically, a high lung tissue Cmax is important for lung tissue anti-fibrotic efficacy. However, this positive effect appears dependent upon an associated small plasma AUC; the larger the plasma AUC, the lower the efficacy. […] In practice, the oral route of administration is not capable of meeting this U-shaped-restricted dose response. Safety and tolerability prevent further dose escalation of the 801 mg/dose oral medicine (Esbriet®). […] To illustrate these findings, possible human lung tissue and plasma pharmacokinetics following tidal-breath-inhaled aerosol administration were again modeled (FIG. 5). […] These safety and/or tolerability restrictions may be associated with plasma AUC, plasma Cmax, gastrointestinal exposure or a combination of these events. […] However, this limitation could also be set as the plasma Cmax or a combination of these pharmacokinetic parameters.\nAerosol deliver parameters for the FIGS. 2 and 5 models were based on high-efficiency, mesh-based nebulizer characterization (Table 12). […] Respirable delivered dose (RDD) calculated by the product of fine particle fraction (FPF, %<5 microns) and inhaled mass. […] For this non-limiting example, a FPF of 78% and inhaled mass of 67% was used. Using these numbers, a 90 mg device-loaded dose may produce an RDD of about 47 mg (Table 26 and FIG. 2). […] For this non-limiting example, a FPF of 78% and inhaled mass of 67% was used. Using these numbers, a 230 mg device-loaded dose may produce an RDD of about 120 mg. […] This later dose was modeled to be delivered in 1 minute.\nAn additional clinical consideration is the rat plasma AUC showing non-efficacy in the bleomycin model. […] Only lower delivered doses show anti-fibrotic effect. Plasma AUCs obtained from higher intratracheal or oral doses appears to have similar non-efficacy or enhanced disease."}, "[3]": {"experiment": "Aqueous solubility, tonicity salt, dissolution and taste observations on pirfenidone formulations", "format": "physicochemical", "protocol": "However, at this (and lower) concentration it was determined that salt addition was required to improve acute tolerability upon inhalation of a nebulized solution (otherwise a hypotonic solution). To address tonicity, NaCl or MgCl2 were added. […] This effect was not observed at ˜pH 8."}, "[4]": {"experiment": "Buffer and pH effects study: pirfenidone saturation solubility", "format": "physicochemical", "details": "thermodynamic from solid", "protocol": "The sample was agitated at ambient temperature overnight. The sample was visually inspected, appearance recorded, centrifuged to sediment any un-dissolved material, and the supernatant withdrawn via syringe through a 0.22 μm PVDF filter. […] The remaining filtered sample was split into three equal volumes in glass vials and placed at 25° C./60 RH, 40° C./75 RH and refrigeration. Samples were wrapped in aluminum foil to reduce light exposure. After the first night of incubation, samples were briefly visually inspected for any signs of discoloration or precipitate formation."}, "[5]": {"details": "Bleomycin + IT pirfenidone 0.9 mg/kg"}, "[6]": {"details": "Bleomycin + IT pirfenidone 3.0 mg/kg"}, "[7]": {"details": "Bleomycin + IT pirfenidone 6.4 mg/kg"}, "[8]": {"details": "Bleomycin + PO pirfenidone 30 mg/kg"}, "[9]": {"details": "Bleomycin + PO pirfenidone 100 mg/kg"}}, "note": "Marks after values point to notes of the source that are not given here.", "data": [{"smiles": "Cc1ccc(=O)n(-c2ccccc2)c1", "note": "[pirfenidone, 5-methyl-1-phenyl-2-(1H)-pyridone]", "values": [{"measurement": "possible lung tissue Cmax", "setting": "[1]; 0.9 mg/kg dose to 250 gram rat, lung about 1.5 grams, whole dose", "value": "≤ 150", "unit": "mcg/gram"}, {"measurement": "possible lung tissue Cmax", "setting": "[1]; 0.9 mg/kg intratracheal dose divided into thirds", "value": "about 50 mcg/gram lung tissue"}, {"measurement": "anti-fibrotic efficacy", "setting": "[1]; 3.0 mg/kg intratracheal, direct lung aerosol, once a day days 7-28", "value": "no observed pirfenidone efficacy"}, {"measurement": "Average Fibrosis Score, Picrosirius Red-stained left lung sections", "setting": "[1]; [5]", "value": "2.88*"}, {"measurement": "Lung Tissue AUC0-2 hrs", "setting": "[1]; [5]", "value": 2.6, "unit": "µg·h/g"}, {"measurement": "Lung Tissue Cmax", "setting": "[1]; [5]", "value": 11.6, "unit": "µg/g"}, {"measurement": "Right lung Average Hydroxyproline", "setting": "[1]; Bleomycin + IT pirfenidone 0.9 mg/kg once a day", "value": "2.88* mg/right lung"}, {"measurement": "Average Fibrosis Score, difference from bleomycin control", "setting": "[1]; [5]", "value": "−0.53*, ****"}, {"measurement": "Right lung Average Hydroxyproline, difference from bleomycin control", "setting": "[1]; [5]", "value": "−0.70*, **** mg/right lung"}, {"measurement": "Average Fibrosis Score, Picrosirius Red-stained left lung sections", "setting": "[1]; [6]", "value": 3.66}, {"measurement": "Lung Tissue AUC0-2 hrs", "setting": "[1]; [6]", "value": 7.3, "unit": "µg·h/g"}, {"measurement": "Lung Tissue Cmax", "setting": "[1]; [6]", "value": 33.5, "unit": "µg/g"}, {"measurement": "Right lung Average Hydroxyproline", "setting": "[1]; Bleomycin + IT pirfenidone 3.0 mg/kg once a day", "value": 3.56, "unit": "mg/right lung"}, {"measurement": "Average Fibrosis Score, difference from bleomycin control", "setting": "[1]; [6]", "value": "0.26***, ****"}, {"measurement": "Right lung Average Hydroxyproline, difference from bleomycin control", "setting": "[1]; [6]", "value": "−0.02**, **** mg/right lung"}, {"measurement": "Average Fibrosis Score, Picrosirius Red-stained left lung sections", "setting": "[1]; [7]", "value": 3.47}, {"measurement": "Lung Tissue AUC0-2 hrs", "setting": "[1]; [7]", "value": 15.5, "unit": "µg·h/g"}, {"measurement": "Lung Tissue Cmax", "setting": "[1]; [7]", "value": 71.5, "unit": "µg/g"}, {"measurement": "Right lung Average Hydroxyproline", "setting": "[1]; Bleomycin + IT pirfenidone 6.4 mg/kg once a day", "value": 3.50, "unit": "mg/right lung"}, {"measurement": "Average Fibrosis Score, difference from bleomycin control", "setting": "[1]; [7]", "value": "0.07**, ****"}, {"measurement": "Right lung Average Hydroxyproline, difference from bleomycin control", "setting": "[1]; [7]", "value": "−0.08***, **** mg/right lung"}, {"measurement": "Average Fibrosis Score, Picrosirius Red-stained left lung sections", "setting": "[1]; [8]", "value": 3.11}, {"measurement": "Lung Tissue AUC0-2 hrs", "setting": "[1]; [8]", "value": 18.2, "unit": "µg·h/g"}, {"measurement": "Lung Tissue Cmax", "setting": "[1]; [8]", "value": 11.8, "unit": "µg/g"}, {"measurement": "Right lung Average Hydroxyproline", "setting": "[1]; Bleomycin + PO pirfenidone 30 mg/kg once a day", "value": 3.65, "unit": "mg/right lung"}, {"measurement": "Average Fibrosis Score, difference from bleomycin control", "setting": "[1]; [8]", "value": "0.68*, **"}, {"measurement": "Right lung Average Hydroxyproline, difference from bleomycin control", "setting": "[1]; [8]", "value": "0.43*, ** mg/right lung"}, {"measurement": "Average Fibrosis Score, Picrosirius Red-stained left lung sections", "setting": "[1]; [9]", "value": 3.61}, {"measurement": "Lung Tissue AUC0-2 hrs", "setting": "[1]; [9]", "value": 34.4, "unit": "µg·h/g"}, {"measurement": "Lung Tissue Cmax", "setting": "[1]; [9]", "value": 33.6, "unit": "µg/g"}, {"measurement": "Right lung Average Hydroxyproline", "setting": "[1]; Bleomycin + PO pirfenidone 100 mg/kg once a day", "value": 3.73, "unit": "mg/right lung"}, {"measurement": "Average Fibrosis Score, difference from bleomycin control", "setting": "[1]; [9]", "value": "1.18***"}, {"measurement": "Right lung Average Hydroxyproline, difference from bleomycin control", "setting": "[1]; [9]", "value": "0.51*** mg/right lung"}, {"measurement": "anti-fibrotic efficacy (fibrosis, hydroxyproline), direct lung versus oral", "setting": "[1]; intratracheal aerosol versus oral gavage", "value": "more efficacious"}, {"measurement": "pirfenidone metabolised via CYP1A2", "setting": "CYP1A2", "value": "approximately 48%"}, {"measurement": "lung tissue Cmax compared to 801 mg oral dose", "setting": "[2]; modeled human, 2.5 mg RDD inhaled over 1 minute", "value": "equivalent"}, {"measurement": "plasma AUC0-18hrs", "setting": "[2]; modeled human, 29 mg RDD, 3 minute tidal-inhaled nebulized dose", "value": 13400, "unit": "ng·h/mL"}, {"measurement": "plasma AUC compared to 801 mg oral pirfenidone dose (with food)", "setting": "[2]; modeled human, 120 mg RDD inhaled over 5 minutes", "value": "equivalent"}, {"measurement": "human lung tissue Cmax", "setting": "[2]; modeled, 29 mg RDD, 3 minute tidal-inhaled nebulized dose", "value": 43.2, "unit": "mcg/gram lung tissue"}, {"measurement": "formulation stability on storage", "setting": "[3]; MgCl2 added, 1:1 and 1:2 mole ratios of magnesium to pirfenidone", "value": "maintained a stable, soluble solution"}, {"measurement": "solubility", "setting": "[3]; aqueous solution, aqueous buffer, across a pH range of about 4.0 to about 8.0", "value": "~17", "unit": "mg/mL"}, {"measurement": "formulation stability on storage", "setting": "[3]; ~17 mg/mL pirfenidone, NaCl added for tonicity, ambient storage", "value": "precipitation upon ambient storage"}, {"measurement": "solubility", "setting": "[4]; citrate buffer, pH 4, aqueous buffer, Citrate buffer 5 mM, pH 4, ambient temperature overnight", "value": 18.4, "unit": "mg/mL"}, {"measurement": "solubility", "setting": "[4]; citrate buffer, pH 4, aqueous buffer, Citrate buffer 50 mM, pH 4, ambient temperature overnight", "value": 18.1, "unit": "mg/mL"}, {"measurement": "solubility", "setting": "[4]; citrate buffer, pH 6, aqueous buffer, Citrate buffer 5 mM, pH 6, ambient temperature overnight", "value": 18.4, "unit": "mg/mL"}, {"measurement": "solubility", "setting": "[4]; citrate buffer, pH 6, aqueous buffer, Citrate buffer 50 mM, pH 6, ambient temperature overnight", "value": 16.4, "unit": "mg/mL"}, {"measurement": "solubility", "setting": "[4]; phosphate buffer, pH 6, aqueous buffer, Phosphate buffer 5 mM, pH 6, ambient temperature overnight", "value": 18.3, "unit": "mg/mL"}, {"measurement": "solubility", "setting": "[4]; phosphate buffer, pH 6, aqueous buffer, Phosphate buffer 50 mM, pH 6, ambient temperature overnight", "value": 17.2, "unit": "mg/mL"}, {"measurement": "solubility", "setting": "[4]; phosphate buffer, pH 7.5, aqueous buffer, Phosphate buffer 5 mM, pH 7.5, ambient temperature overnight", "value": 19, "unit": "mg/mL"}, {"measurement": "solubility", "setting": "[4]; phosphate buffer, pH 7.5, aqueous buffer, Phosphate buffer 50 mM, pH 7.5, ambient temperature overnight", "value": 16.3, "unit": "mg/mL"}, {"measurement": "solubility", "setting": "[4]; water, pH 7.9, water, buffer 0 mM, pH 7.9, ambient temperature overnight", "value": 18.4, "unit": "mg/mL"}]}]}
